Test results published in patent US9381175B2, “Method for treating Chikungunya virus infection” (priority 2014, dated 2016).

What was measured:
[1] = test system: cell fusion of Sf21 cells infected with CS-WT viruses (CHIKV); test: Cell fusion assay, Sf21 cells infected with recombinant baculovirus CS-WT; settings: for inhibition of cell fusion induced by CS-WT infection, primary screening: Sf21 cells, screening of drug library, antiviral agents and synthetic peptides, data not shown; for inhibition of cell fusion in CS-WT infected Sf21 cells: 5 mg/mL, 2 hours, pH 5.8, FIG. 11; for inhibition of the membrane fusion of Chikungunya viruses (summary of screening result): bicistronic baculovirus expression system in Sf21 cells
CHIKV [2] = test: Immunofluorescence assay of CHIKV infection in BHK-21 cells; assay type: cell-based, Chikungunya virus
CHIKV [3] = test: Cell protection assay against CHIKV infection (crystal violet); assay type: cell-based, Chikungunya virus; settings: BHK-21, moi 0.05, 2 days, FIG. 18
CHIKV [4] = test: Western blot of CHIKV structural protein production in BHK-21 cells; settings: FIG. 14
BHK-21 cells = test: Cytotoxicity assay (crystal violet); assay type: cell-based; settings: 1,000 μg/ml, BHK-21, 2 days, crystal violet OD 540, FIG. 18 left panel
Experimental: 10^5 BHK-21 cells per well of 96-well plate were cultured with 2% FCS DMEM. For cykotoxicity assay, cells were cultured in the presence or absence of drug at various concentrations in duplication for 2 days. For cell protection assay, cells were infected with CHIKV at moi of 0.05 in the presence or absence of drugs at various concentrations in duplication for 2 days. Cells were then stained with 0.1% crystal violet solution to observe clearance of the cell monolayer caused by the cytotoxic or cytopathic effect. Crystal violet was quantified by optical density (OD) 540.

VEEV-TC83 = assay type: cell-based, Venezuelan equine encephalitis virus
[5] = test system: cell fusion of Sf21 cells infected with VS-TC83 (VEEV-TC83) viruses; assay type: cell-based, Venezuelan equine encephalitis virus; settings: for inhibition of fusion (fusion index) of Sf21 cells infected with VS-TC83 viruses: pH 5.8

O=C1[C@H](CC[C@H](O)c2ccc(F)cc2)[C@@H](c2ccc(O)cc2)N1c1ccc(F)cc1 [ezetimibe]
inhibition of cell fusion induced by CS-WT infection, primary screening [1]: failed to inhibit the cell fusion

NC(=O)c1ncn([C@@H]2O[C@H](CO)[C@@H](O)[C@H]2O)n1 [ribavirin]
inhibition of CHIKV infection in vitro (E2 immunofluorescence), comparison with suramin (CHIKV [2]; 12.5 μg/ml, BHK-21, M.O.I. 1, 20 hours, FIG. 15): inhibition efficacy of suramin is higher than that of ribavirin

Cc1ccc(C(=O)Nc2ccc(S(=O)(=O)O)c3cc(S(=O)(=O)O)cc(S(=O)(=O)O)c23)cc1NC(=O)c1cccc(NC(=O)Nc2cccc(C(=O)Nc3cc(C(=O)Nc4ccc(S(=O)(=O)O)c5cc(S(=O)(=O)O)cc(S(=O)(=O)O)c45)ccc3C)c2)c1 [suramin]
concentrations at which the cells are significantly protected from CHIKV infection (CHIKV [3]): 15.6-1,000 μg/ml | protection from the cytopathic effect of CHIKV infection (CHIKV [3]): protects BHK-21 cells from the cytopathic effect | inhibitory effect on cell fusion (fusion index) ([1]; 55 μM, FIG. 13): minimal | inhibition of cell fusion in CS-WT infected Sf21 cells [1]: remarkably inhibited the cell fusion | inhibitory efficacy on cell fusion (fusion index), dose dependence ([1]; 3,500, 875, 219 or 55 μM, FIG. 12/13): inhibitory efficacy of suramin increases as the concentration of suramin increases | inhibition of cell fusion induced by CS-WT infection, primary screening [1]: substantially inhibited the cell fusion | inhibition of the membrane fusion of Chikungunya viruses (summary of screening result) [1]: block the membrane fusion | inhibitory effect on the production of the structural proteins of CHIKV (CHIKV [4]; 44 μM, BHK-21 cells): only marginal inhibitory effect | inhibitory effect on the production of the structural proteins of CHIKV, dose dependence (CHIKV [4]; BHK-21 cells, 10,000 PFU CHIKV, 20 hours): dose-dependency of the inhibitory effect | inhibition of CHIKV infection in vitro (E2 immunofluorescence) (CHIKV [2]; 175 μM (2.5 mg/mL), BHK-21, M.O.I. 1, 20 hours, FIG. 15): inhibit CHIKV infection in vitro | time-of-addition: stage in which the inhibition activity takes place (CHIKV [2]; 5 mg/mL (350 μM), immunofluorescence, FIG. 17 panels A-C): 0-2 hours post infection | time-of-addition: inhibitory effect on addition at a later stage (CHIKV [2]; 5 mg/mL (350 μM), immunofluorescence, FIG. 17 panels D-F): almost no inhibitory effect | in vitro inhibition efficacy against CHIKV, dose dependence (CHIKV [2]; BHK-21, 2,000 PFU CHIKV, 20 hours, FIG. 16): increases as the concentration of suramin increases | in vitro inhibitory effect against CHIKV (CHIKV [2]; dose of less than 44 μM, FIG. 16 panel D): marginal inhibitory effect | cytotoxicity (BHK-21 cells): minimal cytotoxicity

carrageenan
inhibition of cell fusion induced by CS-WT infection, primary screening [1]: failed to inhibit the cell fusion

chondroitin sulfate
inhibition of cell fusion in CS-WT infected Sf21 cells [1]: did not substantially inhibit the cell fusion

dextran sulfate
inhibition of the membrane fusion of Chikungunya viruses (summary of screening result) [1]: not effective to inhibit the membrane fusion | inhibition of VEEV-TC83 infection (VEEV-TC83): elicited dose-dependent inhibition | inhibition of cell fusion induced by VS-TC83 virus, dose dependence [5]: inhibit the cell fusion induced by VS-TC83 virus in a dose-dependent manner | inhibition of the membrane fusion of Venezuelan equine encephalitis virus (summary of screening result) [5]: can inhibit the membrane fusion | inhibition of fusion (fusion index) of Sf21 cells infected with VS-TC83 viruses [5]: substantially inhibit the fusion

heparin
inhibition of the membrane fusion of Chikungunya viruses (summary of screening result) [1]: not effective to inhibit the membrane fusion | inhibition of VEEV-TC83 infection (VEEV-TC83): elicited dose-dependent inhibition | inhibition of cell fusion induced by VS-TC83 virus, dose dependence [5]: inhibit the cell fusion induced by VS-TC83 virus in a dose-dependent manner | inhibition of the membrane fusion of Venezuelan equine encephalitis virus (summary of screening result) [5]: can inhibit the membrane fusion | inhibition of fusion (fusion index) of Sf21 cells infected with VS-TC83 viruses [5]: substantially inhibit the fusion
